≈ marks a conversion by molar mass, not a printed value. Calls of active or inactive are those of the source. The rule behind the calls is not given here.
What was measured:
Pseudomonas aeruginosa [1] = test: Synergistic antibacterial activity against multidrug-resistant Pseudomonas aeruginosa CCARM 2095 after 72 hrs in presence of ciprofloxacin by chequerboard assay; type: functional
Escherichia coli [2] = test: Antibacterial activity against Escherichia coli KCTC 1682 in presence of 6 uM NH4Cl after 24 hrs; type: functional; conditions: KCTC 1682, 24 h
RAW264.7 [3] = test: Cytotoxicity against mouse RAW264.7 cells up to 128 uM after 48 hrs by MTT assay; type: cell-based; conditions: raw264.7, 48 h
Escherichia coli [4] = test: Antibacterial activity against Escherichia coli KCTC 1682 in presence of 20% human serum after 24 hrs; type: functional; conditions: KCTC 1682, 24 h
Staphylococcus aureus [5] = test: Potency index, ratio of LL-37 MIC to compound MIC for methicillin resistant Staphylococcus aureus CCARM 3089; type: functional
RAW264.7 [6] = test: Anti-inflammatory activity in mouse RAW264.7 cells assessed as reduction in LPS-induced nitric oxide production at 10 to 20 uM after 24 hrs by Griess assay; type: functional, cell-based
Staphylococcus aureus [7] = test: Potency index, ratio of LL-37 MIC to compound MIC for methicillin resistant Staphylococcus aureus CCARM 3095; type: functional
Staphylococcus aureus [8] = test: Antibacterial activity against Staphylococcus aureus KCTC 1621 in presence of 1 mM MgCl2 after 24 hrs; type: functional; conditions: KCTC 1621, 24 h
Pseudomonas aeruginosa [9] = test: Potency index, ratio of melittin MIC to compound MIC for multidrug-resistant Pseudomonas aeruginosa CCARM 2095; type: functional
[10] = Therapeutic index, ratio of MHC10 for human RBC to MIC for Escherichia coli KCTC 1682; type: toxicity; conditions: red blood cells (RBC), pooled result: one value given for 6 cell lines, strains, targets or settings, read-out: TI
Escherichia coli [11] = test: Antibacterial activity against Escherichia coli KCTC 1682 in presence of 1 mM MgCl2 after 24 hrs; type: functional; conditions: KCTC 1682, 24 h
RAW264.7 [12] = test: Anti-inflammatory activity in mouse RAW264.7 cells assessed as reduction in LPS-induced TNF-alpha mRNA expression at 10 uM after 3 hrs by RT-PCR analysis; type: functional, cell-based
Escherichia coli [13] = test: Antibacterial activity against Escherichia coli KCTC 1682 in presence of 4.5 mM KCl after 24 hrs; type: functional; conditions: KCTC 1682, 24 h
RAW264.7 [14] = test: Anti-inflammatory activity in mouse RAW264.7 cells assessed as reduction in LPS-induced MCP-1 production at 10 to 20 uM preincubated for 1 hr followed by LPS stimulation measured after 6 hrs by ELISA; type: functional, cell-based
Escherichia coli [15] = test: Antibacterial activity against Escherichia coli KCTC 1682 in presence of 150 mM NaCl after 24 hrs; type: functional; conditions: KCTC 1682, 24 h
Enterococcus faecium = test: Antibacterial activity against Vancomycin-resistant Enterococcus faecium ATCC 51559 after 24 hrs; type: functional; conditions: ATCC 51559, 24 h
Erythrocyte = test: Hemolytic activity in human RBC after 1 hr; type: ADME, cell-based
Staphylococcus aureus [16] = test: Antibacterial activity against Staphylococcus aureus KCTC 1621 assessed as cytoplasmic membrane depolarization at 2 times MIC by disC3-5 dye based fluorescence assay; type: functional, organism-based
Staphylococcus aureus [17] = test: Antibacterial activity against Staphylococcus aureus KCTC 1621 assessed as cell membrane disruption at 2 times MIC within 4 mins by Sytox Green dye based fluorescence spectrophotometer assay; type: functional, organism-based
Pseudomonas aeruginosa [18] = test: Antibiofilm activity against multidrug-resistant Pseudomonas aeruginosa CCARM 2095 after 24 hrs by crystal violet staining based assay; type: functional
Staphylococcus aureus [19] = test: Antibacterial activity against methicillin resistant Staphylococcus aureus CCARM 3095 after 24 hrs; type: functional; conditions: CCARM 3095, 24 h
Salmonella typhimurium = test: Antibacterial activity against Salmonella typhimurium KCTC 11926 after 24 hrs; type: functional, Salmonella enterica subsp. enterica serovar Typhimurium; conditions: Salmonella enterica, KCTC 11926, 24 h
Lipid bilayer = test: Binding affinity to EYPE/EYPG small unilamellar vesicles assessed as intrinsic tryptophan acrylamide quenching constant by fluorescence assay (reference value: 5.95 to 7.56 /M)
Staphylococcus aureus [20] = test: Antibacterial activity against Staphylococcus aureus KCTC 1621 after 24 hrs; type: functional; conditions: KCTC 1621, 24 h
Staphylococcus aureus [21] = test: Potency index, ratio of melittin MIC to compound MIC for methicillin resistant Staphylococcus aureus CCARM 3090; type: functional
Pseudomonas aeruginosa [22] = test: Antibacterial activity against multidrug-resistant Pseudomonas aeruginosa CCARM 2109 after 24 hrs; type: functional; conditions: CCARM 2109, 24 h
Pseudomonas aeruginosa [23] = test: Potency index, ratio of LL-37 MIC to compound MIC for multidrug-resistant Pseudomonas aeruginosa CCARM 2109; type: functional
Staphylococcus aureus [24] = test: Ratio of MIC for Staphylococcus aureus KCTC 1621 in presence of 20% human serum to MIC for Escherichia coli KCTC 1682 in presence of 20% human serum; type: functional
Staphylococcus aureus [25] = test: Potency index, ratio of LL-37 MIC to compound MIC for methicillin resistant Staphylococcus aureus CCARM 3090; type: functional
RAW264.7 [26] = test: Anti-inflammatory activity in mouse RAW264.7 cells assessed as reduction in LPS-induced IL-6 mRNA expression at 10 uM after 3 hrs by RT-PCR analysis; type: functional, cell-based
Pseudomonas aeruginosa [27] = test: Antibacterial activity against Pseudomonas aeruginosa KCTC 1637 after 24 hrs; type: functional; conditions: KCTC 1637, 24 h
Staphylococcus aureus [28] = test: Antibacterial activity against methicillin resistant Staphylococcus aureus CCARM 3089 after 24 hrs; type: functional; conditions: CCARM 3089, 24 h
RAW264.7 [29] = test: Anti-inflammatory activity in mouse RAW264.7 cells assessed as reduction in LPS-induced IL-6 production at 10 to 20 uM preincubated for 1 hr followed by LPS stimulation measured after 6 hrs by ELISA; type: functional, cell-based
Staphylococcus aureus [30] = test: Antibacterial activity against Staphylococcus aureus KCTC 1621 in presence of 20% human serum after 24 hrs; type: functional; conditions: KCTC 1621, 24 h
Escherichia coli [31] = test: Antibacterial activity against Escherichia coli KCTC 1682 in presence of 2.5 mM CaCl2 after 24 hrs; type: functional; conditions: KCTC 1682, 24 h
RAW264.7 [32] = test: Anti-inflammatory activity in mouse RAW264.7 cells assessed as reduction in LPS-induced iNOS mRNA expression at 5 uM after 6 hrs by RT-PCR analysis; type: functional, cell-based
Escherichia coli [33] = test: Antibacterial activity against Escherichia coli KCTC 1682 after 24 hrs; type: functional; conditions: KCTC 1682, 24 h
RAW264.7 [34] = test: Anti-inflammatory activity in mouse RAW264.7 cells assessed as reduction in LPS-induced TNF-alpha production at 10 to 20 uM preincubated for 1 hr followed by LPS stimulation measured after 6 hrs by ELISA; type: functional, cell-based
[35] = test system: Staphylococcus epidermidis; test: Antibacterial activity against Staphylococcus epidermidis KCTC 1917 after 24 hrs; type: functional; conditions: KCTC 1917, 24 h
Staphylococcus aureus [36] = test: Antibacterial activity against Staphylococcus aureus KCTC 1621 in presence of 6 uM NH4Cl after 24 hrs; type: functional; conditions: KCTC 1621, 24 h
[37] = Binding affinity to EYPC/cholesterol small unilamellar vesicles assessed as intrinsic tryptophan acrylamide quenching constant by fluorescence assay (reference value: 5.95 to 7.56 /M)
Pseudomonas aeruginosa [38] = test: Synergistic antibacterial activity against multidrug-resistant Pseudomonas aeruginosa CCARM 2095 after 72 hrs in presence of chloramphenicol by chequerboard assay; type: functional
Staphylococcus aureus [39] = test: Potency index, ratio of melittin MIC to compound MIC for methicillin resistant Staphylococcus aureus CCARM 3095; type: functional
Staphylococcus aureus [40] = test: Antibacterial activity against methicillin resistant Staphylococcus aureus CCARM 3090 after 24 hrs; type: functional; conditions: CCARM 3090, 24 h

CC[C@H](C)[C@H](NC(=O)[C@H](CCCNC(=N)N)NC(=O)[C@@H](N)CCCCN)C(=O)N[C@H](C(=O)N[C@@H](CCCCN)C(=O)N[C@H](CC(C)C)C(=O)N[C@H](C(=O)N[C@@H](CC(C)C)C(=O)N[C@@H](CCCCN)C(=O)N[C@@H](Cc1c[nH]c2ccccc12)C(=O)N[C@@H](CC(C)C)C(=O)N[C@@H](CCCNC(=N)N)C(N)=O)[C@@H](C)CC)C(C)C
fractional inhibitory concentration index (FICI) (Pseudomonas aeruginosa [1]): 0.3125 | MIC (Escherichia coli [2]): 4 µM | Activity (RAW264.7 [3]): Non-Toxic | MIC (Escherichia coli [4]): 8 µM | Ratio (Staphylococcus aureus [5]): 2 - 4 | Activity (RAW264.7 [6]): Active | Ratio (Staphylococcus aureus [7]): 2 - 4 | MIC (Staphylococcus aureus [8]): 4 µM | Ratio (Pseudomonas aeruginosa [9]): 2 - 4 | selectivity ratio [10]: 61.2 | MIC (Escherichia coli [11]): 4 µM | Activity (RAW264.7 [12]): Active | MIC (Escherichia coli [13]): 4 µM | Activity (RAW264.7 [14]): Active | MIC (Escherichia coli [15]): 4 µM | MIC (Enterococcus faecium): 4 µM (≈ 6.26 µg/mL) | MHC10 (Erythrocyte): 202 µM | Activity (Staphylococcus aureus [16]): Active | Activity (Staphylococcus aureus [17]): Active | MBIC90 (Pseudomonas aeruginosa [18]): 16 µM | MIC (Staphylococcus aureus [19]): 4 µM (≈ 6.26 µg/mL) | MIC (Salmonella typhimurium): 2 µM (≈ 3.13 µg/mL) | KSV (Lipid bilayer): 0.97 M⁻¹ | MIC (Staphylococcus aureus [20]): 2 µM (≈ 3.13 µg/mL) | Ratio (Staphylococcus aureus [21]): 2 - 4 | MIC (Pseudomonas aeruginosa [22]): 4 µM (≈ 6.26 µg/mL) | Ratio (Pseudomonas aeruginosa [23]): 2 - 4 | Ratio (Staphylococcus aureus [24]): 2 - 8 | Ratio (Staphylococcus aureus [25]): 2 - 4 | Activity (RAW264.7 [26]): Active | MIC (Pseudomonas aeruginosa [27]): 4 µM (≈ 6.26 µg/mL) | MIC (Staphylococcus aureus [28]): 4 µM (≈ 6.26 µg/mL) | Activity (RAW264.7 [29]): Active | MIC (Staphylococcus aureus [30]): 16 µM | MIC (Escherichia coli [31]): 16 µM | Activity (RAW264.7 [32]): Active | MIC (Escherichia coli [33]): 4 µM (≈ 6.26 µg/mL) | Activity (RAW264.7 [34]): Active | MIC [35]: 4 µM (≈ 6.26 µg/mL) | MIC (Staphylococcus aureus [36]): 2 µM | KSV [37]: 2.9 M⁻¹ | fractional inhibitory concentration index (FICI) (Pseudomonas aeruginosa [38]): 0.375 | Ratio (Staphylococcus aureus [39]): 2 - 4 | MIC (Staphylococcus aureus [40]): 4 µM (≈ 6.26 µg/mL)
